In PMC6864482, “Novel C7-Substituted Coumarins as Selective Monoamine Oxidase Inhibitors: Discovery, Synthesis and Theoretical Simulation” (Molecules, 2019):

Assays:
hMAO-B = biological target: T1, hMAO-B (Homo sapiens, UniProt P27338); conditions: previously identified BRS-3D hits, cited from earlier work
T1 sequence (P27338 1-520): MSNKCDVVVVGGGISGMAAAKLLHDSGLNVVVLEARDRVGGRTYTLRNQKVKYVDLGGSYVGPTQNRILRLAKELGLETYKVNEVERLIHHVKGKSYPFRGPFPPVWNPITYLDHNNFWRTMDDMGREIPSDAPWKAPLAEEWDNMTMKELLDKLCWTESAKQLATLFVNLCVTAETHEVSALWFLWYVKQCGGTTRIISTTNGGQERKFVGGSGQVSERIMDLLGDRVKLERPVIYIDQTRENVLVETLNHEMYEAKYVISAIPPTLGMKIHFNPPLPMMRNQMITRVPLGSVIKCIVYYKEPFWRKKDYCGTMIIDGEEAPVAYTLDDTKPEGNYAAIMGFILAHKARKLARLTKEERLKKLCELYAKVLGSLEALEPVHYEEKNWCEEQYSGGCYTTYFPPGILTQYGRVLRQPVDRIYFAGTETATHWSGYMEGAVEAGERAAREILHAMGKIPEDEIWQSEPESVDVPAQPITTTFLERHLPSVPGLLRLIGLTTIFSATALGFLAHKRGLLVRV

hMAO-A = biological target: T2, hMAO-A (Homo sapiens, UniProt P21397); conditions: previously identified BRS-3D hits, cited from earlier work
T2 sequence (P21397 1-527): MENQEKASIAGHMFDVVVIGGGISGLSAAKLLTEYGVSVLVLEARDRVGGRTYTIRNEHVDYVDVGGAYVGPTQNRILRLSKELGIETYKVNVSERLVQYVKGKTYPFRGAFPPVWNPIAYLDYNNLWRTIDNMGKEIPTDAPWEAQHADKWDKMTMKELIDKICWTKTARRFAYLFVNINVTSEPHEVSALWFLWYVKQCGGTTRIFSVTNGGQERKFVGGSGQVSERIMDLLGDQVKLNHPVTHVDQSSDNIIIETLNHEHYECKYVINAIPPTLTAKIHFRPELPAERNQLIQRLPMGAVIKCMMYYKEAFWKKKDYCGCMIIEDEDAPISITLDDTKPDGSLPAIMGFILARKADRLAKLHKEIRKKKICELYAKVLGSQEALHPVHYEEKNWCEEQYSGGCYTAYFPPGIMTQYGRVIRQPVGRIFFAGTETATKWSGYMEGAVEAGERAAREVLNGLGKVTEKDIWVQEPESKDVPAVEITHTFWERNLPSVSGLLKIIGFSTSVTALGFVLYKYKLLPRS

[1] = pIC50 = −log(IC50), listed as M43 (7a)

Cc1cc(=O)oc2cc(Oc3nnc(-c4ccccc4)s3)ccc12 [M43, 4-Methyl-7-((5-phenyl-1,3,4-thiadiazol-2-yl)oxy)-2H-chromen-2-one]
melting point: 124 to 125 °C | MAO-B Avg. Inh% at 10 uM (hMAO-B; 10 μM): 96% | MAO-B pIC50 (hMAO-B; [1]): 6.4 | IC50 (hMAO-B; read-out: MAO-B IC50): 360 nM | MAO-A pIC50 (hMAO-A; [1]): 6.8 | IC50 (hMAO-A; read-out: MAO-A IC50): 160 nM
